Results reported in ChEMBL document CHEMBL1153753, “Structure-activity relationships and mechanism of action of antitumor bis 8-hydroxyquinoline substituted benzylamines” (Eur J Med Chem, 2010).

How the values were obtained:
[1] = Disregulation of cell cycle related gene expression in human U87 cells assessed as change in CDC6 mRNA level at 0.5 uM after 16 hrs by microarray analysis relative to untreated control; type: functional, cell-based; details: U-87MG ATCC
[2] = Disregulation of cell cycle related gene expression in human U87 cells assessed as change in EDN1 mRNA level at 0.5 uM after 3 hrs by microarray analysis relative to untreated control; type: functional, cell-based; details: U-87MG ATCC
[3] = Disregulation of cell development related gene expression in human U87 cells assessed as change in ISL2 mRNA level at 0.5 uM after 16 hrs by microarray analysis relative to untreated control; type: functional, cell-based; details: U-87MG ATCC
[4] = Disregulation of cell development related gene expression in human U87 cells assessed as change in HOXA6 mRNA level at 0.5 uM after 16 hrs by microarray analysis relative to untreated control; type: functional, cell-based; details: U-87MG ATCC
[5] = Disregulation of cell development related gene expression in human U87 cells assessed as change in HQXB9 mRNA level at 0.5 uM after 16 hrs by microarray analysis relative to untreated control; type: functional, cell-based; details: U-87MG ATCC
[6] = Cytotoxicity against human U373 cells by MTT assay; type: functional, cell-based, U-373MG ATCC; details: U373 MG
[7] = Disregulation of endoplasmic reticulum stress responsive gene expression in human U87 cells assessed as change in ATF4 mRNA level at 0.5 uM after 16 hrs by microarray analysis relative to untreated control; type: functional, cell-based; details: U-87MG ATCC
[8] = Disregulation of cell cycle related gene expression in human U87 cells assessed as change in cyclin E2 mRNA level at 0.5 uM after 16 hrs by microarray analysis relative to untreated control; type: functional, cell-based; details: U-87MG ATCC
[9] = Disregulation of inflammation related gene expression in human U87 cells assessed as change in IL8 mRNA level at 0.5 uM after 16 hrs by microarray analysis relative to untreated control; type: functional, cell-based; details: U-87MG ATCC
[10] = Disregulation of cell cycle related gene expression in human U87 cells assessed as change in SKP2 mRNA level at 0.5 uM after 16 hrs by microarray analysis relative to untreated control; type: functional, cell-based; details: U-87MG ATCC

In the case of Cc1ccc(CN(Cc2ccc(O)c3ncccc23)Cc2ccc(O)c3ncccc23)cc1, the fold change (FC) [1] is reported as 3, the fold change (FC) [2] is reported as > 1.4 and the fold change (FC) [3] is reported as 3. It also gave a fold change (FC) [4] of 3, a fold change (FC) [5] of 3 and an IC50 [6] of 0.053 µM. The fold change (FC) [7] was 3, the fold change (FC) [8] was 3 and the fold change (FC) [9] was 3. It also gave a fold change (FC) [10] of 3.
